Test results published in PubChem BioAssay AID256 (DTP/NCI, 2004).
Values joined by “and” are separate entries in the source; they are usually repeats but may differ in a detail not shown here. Identical values can stand only once. Inconclusive results and toxic doses are left out.

System: CD2F1 mice, L1210 leukemia ip, survival T/C
Experiment: NCI In Vivo Anticancer Drug Screen. Data for tumor model L1210 Leukemia (intraperitoneal) in CD2F1 (CDF1) mice
Conditions: higher = longer survival
Outline: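 Compound-dosed mice with transplantable tumor versus matched vehicle controls; endpoint ratio T/C reported.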

[1] = endpoint: mean survival time, dose: 100.0 mg/kg/injection, schedule: Q01DX001 (ip), vehicle: saline with Tween-80
[2] = endpoint: mean survival time, dose: 200.0 mg/kg/injection, schedule: Q01DX001 (ip), vehicle: saline with Tween-80
[3] = endpoint: mean survival time, dose: 50.0 mg/kg/injection, schedule: Q04DX003 (ip), vehicle: saline with Tween-80
[4] = endpoint: mean survival time, dose: 100.0 mg/kg/injection, schedule: Q04DX003 (ip), vehicle: saline with Tween-80
[5] = endpoint: mean survival time, dose: 100.0 mg/kg/injection, schedule: Q01DX009 (ip), vehicle: saline with Tween-80
[6] = endpoint: mean survival time, dose: 200.0 mg/kg/injection, schedule: Q01DX009 (ip), vehicle: saline with Tween-80
[7] = endpoint: mean survival time, dose: 400.0 mg/kg/injection, schedule: Q01DX009 (ip), vehicle: saline with Tween-80
[8] = endpoint: mean survival time, dose: 100.0 mg/kg/injection, schedule: Q01DX009 (ip), vehicle: saline
[9] = endpoint: mean survival time, dose: 25.0 mg/kg/injection, schedule: Q01DX009 (ip), vehicle: saline
[10] = endpoint: mean survival time, dose: 50.0 mg/kg/injection, schedule: Q01DX009 (ip), vehicle: saline
[11] = endpoint: mean survival time, dose: 6.25 mg/kg/injection, schedule: Q01DX009 (ip), vehicle: Klucel (hydroxypropylcellulose) (HPC)
[12] = endpoint: mean survival time, dose: 12.5 mg/kg/injection, schedule: Q01DX009 (ip), vehicle: Klucel (hydroxypropylcellulose) (HPC)

CCCCC(=O)Nc1ccc(Cl)cc1
T/C [1]: 101 % of control
T/C [2]: 95 % of control
T/C (endpoint: mean survival time, dose: 400.0 mg/kg/injection, schedule: Q01DX001 (ip), vehicle: saline with Tween-80): 106 % of control

Cn1c2c(c3ccccc31)C(=O)CC2(C)C
T/C [3]: 103 % of control
T/C [1]: 93 % of control
T/C [4]: 89 % of control
T/C [2]: 98 % of control

Cc1cn(C2CC(O)C(CO)O2)c(=O)nc1NC1CC1 (stereo not drawn)
T/C (endpoint: median survival time, dose: 12.5 mg/kg/injection, schedule: Q01DX005 (ip), vehicle: water): 102 % of control
T/C (endpoint: median survival time, dose: 25.0 mg/kg/injection, schedule: Q01DX005 (ip), vehicle: water): 102 % of control
T/C (endpoint: median survival time, dose: 50.0 mg/kg/injection, schedule: Q01DX005 (ip), vehicle: water): 104 % of control
T/C (endpoint: median survival time, dose: 100.0 mg/kg/injection, schedule: Q01DX005 (ip), vehicle: water): 103 % of control
T/C (endpoint: median survival time, dose: 200.0 mg/kg/injection, schedule: Q01DX005 (ip), vehicle: water): 102 % of control

c1ccc(-c2nc3c(c(-c4ccccc4)n2)CCO3)cc1
T/C [5]: 95 % of control
T/C [4]: 98 % of control
T/C [6]: 93 % of control
T/C (endpoint: mean survival time, dose: 200.0 mg/kg/injection, schedule: Q04DX003 (ip), vehicle: saline with Tween-80): 100 % of control
T/C [7]: 95 % of control
T/C (endpoint: mean survival time, dose: 400.0 mg/kg/injection, schedule: Q04DX003 (ip), vehicle: saline with Tween-80): 90 % of control

COc1ccc(N)cc1OC
T/C [8]: 96 % of control
T/C (endpoint: mean survival time, dose: 200.0 mg/kg/injection, schedule: Q01DX009 (ip), vehicle: saline): 102 % of control
T/C (endpoint: mean survival time, dose: 400.0 mg/kg/injection, schedule: Q01DX009 (ip), vehicle: saline): 98 % of control

S=C(NNC(=S)Nc1ccc(Cl)cc1)NNc1ccccc1
T/C (endpoint: mean survival time, dose: 50.0 mg/kg/injection, schedule: Q01DX009 (ip), vehicle: acetone): 95 % of control
T/C (endpoint: mean survival time, dose: 100.0 mg/kg/injection, schedule: Q01DX009 (ip), vehicle: acetone): 97 % of control

CCN(CC)CCOC(=O)c1ccccc1Nc1cccc(C)c1
T/C [9]: 89 % of control
T/C [10]: 101 % of control
T/C [8]: 97 % of control

CN(C)CC1CCC/C(=C\C=C\c2ccccc2)C1=O (stereo not drawn)
T/C (endpoint: mean survival time, dose: 12.5 mg/kg/injection, schedule: Q04DX003 (ip), vehicle: Klucel (hydroxypropylcellulose) (HPC)): 100 % of control
T/C (endpoint: mean survival time, dose: 25.0 mg/kg/injection, schedule: Q04DX003 (ip), vehicle: Klucel (hydroxypropylcellulose) (HPC)): 103 % of control
T/C (endpoint: mean survival time, dose: 50.0 mg/kg/injection, schedule: Q04DX003 (ip), vehicle: Klucel (hydroxypropylcellulose) (HPC)): 94 % of control

ClCc1cnc[nH]1
T/C (endpoint: mean survival time, dose: 100.0 mg/kg/injection, schedule: Q04DX002 (ip), vehicle: saline): 103 % of control
T/C (endpoint: mean survival time, dose: 200.0 mg/kg/injection, schedule: Q04DX002 (ip), vehicle: saline): 96 % of control

CCOC(=O)c1cc(C)[nH]c(=O)c1C#N
T/C (endpoint: mean survival time, dose: 25.0 mg/kg/injection, schedule: Q01DX009 (ip), vehicle: saline with Tween-80): 93 % of control
T/C (endpoint: mean survival time, dose: 25.0 mg/kg/injection, schedule: Q04DX003 (ip), vehicle: saline with Tween-80): 102 % of control
T/C (endpoint: mean survival time, dose: 50.0 mg/kg/injection, schedule: Q01DX009 (ip), vehicle: saline with Tween-80): 96 % of control
T/C [3]: 102 % of control
T/C [5]: 93 % of control
T/C [4]: 98 % of control

O=S(=O)(C#Cc1ccccc1)c1ccccc1
T/C (endpoint: mean survival time, dose: 25.0 mg/kg/injection, schedule: Q01DX001 (ip), vehicle: Klucel (hydroxypropylcellulose) (HPC)): 95 % of control
T/C (endpoint: mean survival time, dose: 50.0 mg/kg/injection, schedule: Q01DX001 (ip), vehicle: Klucel (hydroxypropylcellulose) (HPC)): 102 % of control
T/C (endpoint: mean survival time, dose: 100.0 mg/kg/injection, schedule: Q01DX001 (ip), vehicle: Klucel (hydroxypropylcellulose) (HPC)): 100 % of control

O=C1CCCCCC2=NC12 (stereo not drawn)
T/C (endpoint: median survival time, dose: 6.25 mg/kg/injection, schedule: Q01DX009 (ip), vehicle: Klucel (hydroxypropylcellulose) (HPC)): 97 % of control
T/C (endpoint: median survival time, dose: 12.5 mg/kg/injection, schedule: Q01DX009 (ip), vehicle: Klucel (hydroxypropylcellulose) (HPC)): 102 % of control
T/C (endpoint: median survival time, dose: 25.0 mg/kg/injection, schedule: Q01DX009 (ip), vehicle: Klucel (hydroxypropylcellulose) (HPC)): 105 % of control
T/C (endpoint: median survival time, dose: 50.0 mg/kg/injection, schedule: Q01DX009 (ip), vehicle: Klucel (hydroxypropylcellulose) (HPC)): 111 % of control

CC(=O)OCCN1CCN(CCCN2c3ccccc3Sc3ccc(C(F)(F)F)cc32)CC1
T/C (endpoint: mean survival time, dose: 2.6 mg/kg/injection, schedule: Q03HX024 (ip), vehicle: saline): 108 % of control
T/C (endpoint: mean survival time, dose: 4.0 mg/kg/injection, schedule: Q03HX024 (ip), vehicle: saline): 104 % of control
T/C (endpoint: mean survival time, dose: 6.0 mg/kg/injection, schedule: Q03HX024 (ip), vehicle: saline): 121 % of control
T/C (endpoint: mean survival time, dose: 12.5 mg/kg/injection, schedule: Q01DX001 (ip), vehicle: saline): 118 % of control and 105 % of control
T/C (endpoint: mean survival time, dose: 12.5 mg/kg/injection, schedule: Q01DX009 (ip), vehicle: saline): 100 % of control
T/C (endpoint: mean survival time, dose: 25.0 mg/kg/injection, schedule: Q01DX001 (ip), vehicle: saline): 117 % of control and 118 % of control
T/C [9]: 95 % of control
T/C (endpoint: mean survival time, dose: 50.0 mg/kg/injection, schedule: Q01DX001 (ip), vehicle: saline): 114 % of control
T/C [10]: 89 % of control
T/C (endpoint: mean survival time, dose: 100.0 mg/kg/injection, schedule: Q01DX001 (ip), vehicle: saline): 109 % of control

CC(NC(=O)c1ccc(Cl)cc1Cl)c1ccccc1 (stereo not drawn)
T/C (endpoint: mean survival time, dose: 75.0 mg/kg/injection, schedule: Q04DX003 (ip), vehicle: saline with Tween-80): 101 % of control
T/C (endpoint: mean survival time, dose: 150.0 mg/kg/injection, schedule: Q04DX003 (ip), vehicle: saline with Tween-80): 101 % of control
T/C (endpoint: mean survival time, dose: 300.0 mg/kg/injection, schedule: Q04DX003 (ip), vehicle: saline with Tween-80): 101 % of control

O=C1c2ccccc2C(=O)N1CCN1C(=O)c2ccccc2C1=O
T/C (endpoint: mean survival time, dose: 75.0 mg/kg/injection, schedule: Q01DX001 (ip), vehicle: saline with Tween-80): 94 % of control
T/C (endpoint: mean survival time, dose: 150.0 mg/kg/injection, schedule: Q01DX001 (ip), vehicle: saline with Tween-80): 95 % of control
T/C (endpoint: mean survival time, dose: 300.0 mg/kg/injection, schedule: Q01DX001 (ip), vehicle: saline with Tween-80): 94 % of control

CCOC(=O)NC(C)(C)CN(C(=O)OCC)c1ccccc1
T/C [5]: 98 % of control
T/C [6]: 124 % of control
T/C [7]: 95 % of control

CCOC(=O)C1C2OC(=O)C(C(=O)C2CN(CCCl)CCCl)C1C1CC=C(CC2=CCC(C3C4C(=O)OC(C(CN(CCCl)CCCl)C4=O)C3C(=O)OCC)CC2)CC1 (stereo not drawn)
T/C [11]: 121 % of control
T/C [12]: 121 % of control
T/C (endpoint: mean survival time, dose: 50.0 mg/kg/injection, schedule: Q01DX009 (ip), vehicle: Klucel (hydroxypropylcellulose) (HPC)): 154 % of control and 162 % of control
T/C (endpoint: mean survival time, dose: 100.0 mg/kg/injection, schedule: Q01DX009 (ip), vehicle: Klucel (hydroxypropylcellulose) (HPC)): 154 % of control and 232 % of control
T/C (endpoint: mean survival time, dose: 200.0 mg/kg/injection, schedule: Q01DX009 (ip), vehicle: Klucel (hydroxypropylcellulose) (HPC)): 111 % of control
T/C (endpoint: mean survival time, dose: 400.0 mg/kg/injection, schedule: Q01DX009 (ip), vehicle: Klucel (hydroxypropylcellulose) (HPC)): 88 % of control

CNc1c(C)cc(C)c(NC)c1C
T/C (endpoint: mean survival time, dose: 25.0 mg/kg/injection, schedule: Q04DX002 (ip), vehicle: saline with Tween-80): 104 % of control
T/C (endpoint: mean survival time, dose: 50.0 mg/kg/injection, schedule: Q04DX002 (ip), vehicle: saline with Tween-80): 96 % of control
T/C (endpoint: mean survival time, dose: 100.0 mg/kg/injection, schedule: Q04DX002 (ip), vehicle: saline with Tween-80): 116 % of control

N#CC(O)c1ccc([N+](=O)[O-])cc1 (stereo not drawn)
T/C (endpoint: mean survival time, dose: 1.25 mg/kg/injection, schedule: Q04DX002 (ip), vehicle: saline with Tween-80): 101 % of control
T/C (endpoint: mean survival time, dose: 2.5 mg/kg/injection, schedule: Q04DX002 (ip), vehicle: saline with Tween-80): 101 % of control
T/C (endpoint: mean survival time, dose: 5.0 mg/kg/injection, schedule: Q04DX002 (ip), vehicle: saline with Tween-80): 101 % of control
T/C (endpoint: mean survival time, dose: 10.0 mg/kg/injection, schedule: Q04DX002 (ip), vehicle: saline with Tween-80): 97 % of control

Cc1ccc2c(c1)C(=O)N(CC[P+](c1ccccc1)(c1ccccc1)c1ccccc1)C2=O
T/C (endpoint: mean survival time, dose: 0.39 mg/kg/injection, schedule: Q01DX009 (ip), vehicle: Klucel (hydroxypropylcellulose) (HPC)): 105 % of control
T/C (endpoint: mean survival time, dose: 0.78 mg/kg/injection, schedule: Q01DX009 (ip), vehicle: Klucel (hydroxypropylcellulose) (HPC)): 100 % of control
T/C (endpoint: mean survival time, dose: 1.56 mg/kg/injection, schedule: Q01DX009 (ip), vehicle: Klucel (hydroxypropylcellulose) (HPC)): 112 % of control
T/C (endpoint: mean survival time, dose: 3.12 mg/kg/injection, schedule: Q01DX009 (ip), vehicle: Klucel (hydroxypropylcellulose) (HPC)): 103 % of control
T/C [11]: 105 % of control
T/C [12]: 101 % of control
T/C (endpoint: mean survival time, dose: 25.0 mg/kg/injection, schedule: Q01DX009 (ip), vehicle: Klucel (hydroxypropylcellulose) (HPC)): 105 % of control
